Measurements published in US4410546A, “Antiallergic compositions” (Hisamitsu Pharmaceutical Co., Inc., priority 1981, dated 1983).
Like-named read-outs stand apart in the source and are kept apart here.

Assays:
[1] = tested on: homologous passive cutaneous anaphylaxis; experiment: Homologous passive cutaneous anaphylaxis (Homolog. PCA) in rats; type: in vivo, rat (male Wistar strain); details: 200 mg/kg oral, 2 hours prior to antigen; for inhibition at 200 mg/kg: Rattus norvegicus
From the text: In accordance with the experimental method of Tada, T et al (J. Immunol., 106, 1002, 1971), a homologous passive cutaneous anaphylaxis (Homolog. PCA) reaction test was made on male Wistar strain rats, each weighing 160-170 g. In this test, DNP-As (Dinitrophenol coupled Ascaris suum extract) was obtained by reacting dinitrophenol (DNP) with protein extracted from Ascaris suum and was used as the antigen. Anti-DNP-As rats serum was prepaed using said antigen and was used as the antibody. […] After the lapse of 48 hours, the test animals were each given 1.0 ml of the antigen solution (2.0 mg as the amount of protein) containing 0.25% Evans blue by intravenous injection thereinto. Thirty (30) minutes later, they were sacrificed by exsanguination and their skins were peeled to measure the area of PCA blueing lesion. The amounts of dye extravasated were each measured in accordance with the method proposed by Harada, M. et al (J. Pharm. Pharmacol., 23, 218, 1971).
The compounds of the formula (I) were orally administered at a dose of 200 mg/kg to the rats two hours prior to the administration of the antigen thereto.

[2] = tested on: reversed cutaneous anaphylaxis; experiment: Reversed cutaneous anaphylaxis test on rats; type: in vivo, rat (male Wistar strain); details: 100 mg/kg oral, one hour prior to anti-rat rabbit serum; for inhibition at 100 mg/kg: 1 h, read-out: Inhibition rate
Method: In accordance with Yamazaki et al's method (Folia Pharmacol. Jap. 60, .sctn.65, 1964) obtained by improving Ungar et al's method (Arch. intern. Pharmacodyn. 123, 71, 1959), male Wistar strain rats, each weighing about 100 g, were tested as follows.
First of all, anti-rat rabbit serum was dissolved in such an amount in an 0.5% solution of Evans blue as to obtain a 15% solution of the serum. The thus obtained serum solution was injected intradermally in an 0.05 ml dose into each of 2 sites on one side of the back of each of the rats, while an 0.5% solution of Evans blue in saline solution was also injected similarly in an 0.05 ml dose into each of 2 sites on one side of the back thereof. Two hours later, the test animals were sacrificed and their skins were peeled. The skins so peeled were punched as the indication of the Evans blue spot to separate the edema (swollen) portions thereof which were then measured for their weights.
The strength of intumescence was calculated from the following formula: [formula] wherein Wi is the weight of the inflammatory portion and Ws is the weight of the control portion.
The antiallergic compounds of the formula (I) according to this invention were orally administered at a dose of 100 mg/kg to the rats one hour prior to the injection of the anti-rat rabbit serum.

[3] = tested on: lung fragment of guinea pigs; experiment: Histamine release on lung fragment of guinea pigs; type: cell-based, guinea pig; details: sodium salt, induced by ovalbumin 10^-6 g/ml
Method: The lungs of guinea pigs sensitized actively by ovalbumin were thoroughly irrigated by Tyrode's solution and then cut to obtain about 1-2 mm thick pieces. Two hundred (200) mg of the thus obtained fragments were accurately weighed out, immersed in Tyrode's solution and preincubated at 37° C. for 5 minutes. Then, the compounds of the formula (I) were each suspended in saline solution containing 0.5% of tragacanth gum, incubated at 37° C. for 20 minutes and induced by 10^-6 g/ml of ovalbumin.
Following 20 minutes' incubation, the siolutin was chilled in ice and then measured for the amount of released histamine in the medium and remaining in the tissue by the use of fluorometric assay in accordance with the Shore et al's method (J. Pharmacol. exp. Ther. 127, 182, 1959).

mesenteric mast cells = experiment: Test for the degranulation of mesenteric mast cells in rats; type: cell-based, rat; details: 10^-4 g/ml; induced by 5×10^-6 g/ml DNP-As
Method: Rats were passively sensitized at their abdominal cavity by anti-DNP-As rat serum, 24 hours after which the mesenterium of the rats was enucleated. Then, 100 mg of the mesenterium were accurately weighed out, immersed in Tyrode's solution and preincubated at 37° C. for 5 minutes. Thereafter, the immersed solution was added to the antiallergic compounds of the formula (I) suspended in saline solution containing 0.5% of tragacanth gum, incubated at 37° C. for 20 minutes and then induced by 5×10^-6 g/ml of DNP-As. After 20 minutes' incubation, the solution was chilled in ice, and the mesenterium so reacted was dyed by the use of formalin (10% formaldehyde content) and an 0.1% tolwdine blue solution containing 0.1% of acetic acid, treated with ethanol and xylene and measured for degranulation by mirror inspection ([…]).

Acute toxicity test = details: mouse, in vivo; oral, mice, death in 3 weeks
Method: The compounds (of the formula (I)) to be tested were each suspended in a saline solution containing 0.5% of tragacanth gum and then orally administered to 6 ddY strain mice in a group, each mouse weighing 20-25 g. LD50 values were calculated from the death of mice in 3 weeks following the administration.

[4] = amount of dye, read-out: Inhibition rate (amount of dye extravasated)
[5] = area, read-out: Inhibition rate (area of dye extravasated)

SMILES | Amount of dye extravasated [1] | Area of dye extravasated [1] | inhibition at 200 mg/kg [1, 4] | inhibition at 200 mg/kg [1, 5] | Intumescence rate [2] | inhibition at 100 mg/kg [2] | Inhibition rate (histamine release) ([3]; Conc.: 10^-4 g/ml) | Inhibition rate (histamine release) ([3]; Conc.: 10^-5 g/ml) | Degranulation rate (mesenteric mast cells) | LD50 at 504 h (Acute toxicity test)
CCCC[C@H]1CC[C@H](C(=O)O)CC1 [Compound 1, trans-4-n-butylcyclohexanecarboxylic acid] | 5.17 ± 0.32 μg/site | 76.87 ± 2.68 mm^2 | 64% | 22.4% | 29.81 ± 7.17% | 30% | 83.9% | 9.2% | 71.45 ± 5.85% | > 2000 mg/kg
CCCCC[C@H]1CC[C@H](C(=O)O)CC1 [Compound 2, trans-4-n-pentylcyclohexanecarboxylic acid] | 2.49 ± 0.29 μg/site | 67.20 ± 2.57 mm^2 | 82.7% | 32.2% | 25.00 ± 2.77% | 41.3% | 92.2% | 83.4% | 74.96 ± 2.91% | > 2000 mg/kg
